From ChEMBL document CHEMBL3352029, “Ring fusion strategy for the synthesis of anthra[2,3-d]oxazole-2-thione-5,10-dione homologues as DNA topoisomerase inhibitors and as antitumor agents” (Eur J Med Chem, 2014)

Key:
HOP-92 = test: Cytotoxicity against human HOP92 cells assessed as cell growth level at 10 uM after 48 hrs by sulforhodamine B assay; type: functional
[1] = Cytotoxicity against human UACC257 cells assessed as cell growth level at 10 uM after 48 hrs by sulforhodamine B assay; type: functional, UACC-257
SK-MEL-28 = test: Cytotoxicity against human SK-MEL-28 cells assessed as cell growth level at 10 uM after 48 hrs by sulforhodamine B assay; type: functional
MDA-MB-231 = test: Cytotoxicity against human MDA-MB-231 cells assessed as cell growth level at 10 uM after 48 hrs by sulforhodamine B assay; type: functional
A549 = test: Cytotoxicity against human A549/ATCC cells assessed as cell growth level at 10 uM after 48 hrs by sulforhodamine B assay; type: functional
[2] = Cytotoxicity against human OVCAR8 cells assessed as cell growth level at 10 uM after 48 hrs by sulforhodamine B assay; type: functional, OVCAR-8
NCI-H23 = test: Cytotoxicity against human NCI-H23 cells assessed as cell growth level at 10 uM after 48 hrs by sulforhodamine B assay; type: functional
COLO 205 = test: Cytotoxicity against human COLO205 cells assessed as cell growth level at 10 uM after 48 hrs by sulforhodamine B assay; type: functional
SF-539 = test: Cytotoxicity against human SF539 cells assessed as cell growth level at 10 uM after 48 hrs by sulforhodamine B assay; type: functional
TK-10 = test: Cytotoxicity against human TK10 cells assessed as cell growth level at 10 uM after 48 hrs by sulforhodamine B assay; type: functional
[3] = Cytotoxicity against human HCT15 cells assessed as cell growth level at 10 uM after 48 hrs by sulforhodamine B assay; type: functional, HCT-15
T47D = test: Cytotoxicity against human T47D cells assessed as cell growth level at 10 uM after 48 hrs by sulforhodamine B assay; type: functional
SNB-75 = test: Cytotoxicity against human SNB75 cells assessed as cell growth level at 10 uM after 48 hrs by sulforhodamine B assay; type: functional
CAKI-1 = test: Cytotoxicity against human CAKI-1 cells assessed as cell growth level at 10 uM after 48 hrs by sulforhodamine B assay; type: functional
[4] = Cytotoxicity against human OVCAR3 cells assessed as cell growth level at 10 uM after 48 hrs by sulforhodamine B assay; type: functional, OVCAR-3
A498 = test: Cytotoxicity against human A498 cells assessed as cell growth level at 10 uM after 48 hrs by sulforhodamine B assay; type: functional
SK-MEL-5 = test: Cytotoxicity against human SK-MEL-5 cells assessed as cell growth level at 10 uM after 48 hrs by sulforhodamine B assay; type: functional
K562 = test: Cytotoxicity against human K562 cells assessed as cell growth level at 10 uM after 48 hrs by sulforhodamine B assay; type: functional
NCI-H322M = test: Cytotoxicity against human NCI-H322M cells assessed as cell growth level at 10 uM after 48 hrs by sulforhodamine B assay; type: functional
DU-145 = test: Cytotoxicity against human DU145 cells assessed as cell growth level at 10 uM after 48 hrs by sulforhodamine B assay; type: functional
MDA-MB-468 = test: Cytotoxicity against human MDA-MB-468 cells assessed as cell growth level at 10 uM after 48 hrs by sulforhodamine B assay; type: functional
[5] = Cytotoxicity against human SKOV3 cells assessed as cell growth level at 10 uM after 48 hrs by sulforhodamine B assay; type: functional, SK-OV-3
[6] = Cytotoxicity against human OVCAR5 cells assessed as cell growth level at 10 uM after 48 hrs by sulforhodamine B assay; type: functional, OVCAR-5
SW-620 = test: Cytotoxicity against human SW620 cells assessed as cell growth level at 10 uM after 48 hrs by sulforhodamine B assay; type: functional
786-0 = test: Cytotoxicity against human 786-0 cells assessed as cell growth level at 10 uM after 48 hrs by sulforhodamine B assay; type: functional
U-251 = test: Cytotoxicity against human U251 cells assessed as cell growth level at 10 uM after 48 hrs by sulforhodamine B assay; type: functional
IGROV-1 = test: Cytotoxicity against human IGROV1 cells assessed as cell growth level at 10 uM after 48 hrs by sulforhodamine B assay; type: functional
SF-268 = test: Cytotoxicity against human SF268 cells assessed as cell growth level at 10 uM after 48 hrs by sulforhodamine B assay; type: functional
HOP-62 = test: Cytotoxicity against human HOP62 cells assessed as cell growth level at 10 uM after 48 hrs by sulforhodamine B assay; type: functional
SR = test: Cytotoxicity against human SR cells assessed as cell growth level at 10 uM after 48 hrs by sulforhodamine B assay; type: functional
HCC 2998 = test: Cytotoxicity against human HCC2998 cells assessed as cell growth level at 10 uM after 48 hrs by sulforhodamine B assay; type: functional
[7] = Cytotoxicity against human HCT116 cells assessed as cell growth level at 10 uM after 48 hrs by sulforhodamine B assay; type: functional, HCT-116
ACHN = test: Cytotoxicity against human ACHN cells assessed as cell growth level at 10 uM after 48 hrs by sulforhodamine B assay; type: functional
M14 = test: Cytotoxicity against human M14 cells assessed as cell growth level at 10 uM after 48 hrs by sulforhodamine B assay; type: functional
NCI-H226 = test: Cytotoxicity against human NCI-H226 cells assessed as cell growth level at 10 uM after 48 hrs by sulforhodamine B assay; type: functional
MDA-MB-435 = test: Cytotoxicity against human MDA-MB-435 cells assessed as cell growth level at 10 uM after 48 hrs by sulforhodamine B assay; type: functional
HL-60(TB) = test: Cytotoxicity against human HL-60(TB) cells assessed as cell growth level at 10 uM after 48 hrs by sulforhodamine B assay; type: functional
SF-295 = test: Cytotoxicity against human SF295 cells assessed as cell growth level at 10 uM after 48 hrs by sulforhodamine B assay; type: functional
LOX IMVI = test: Cytotoxicity against human LOXIMVI cells assessed as cell growth level at 10 uM after 48 hrs by sulforhodamine B assay; type: functional
MOLT-4 = test: Cytotoxicity against human MOLT4 cells assessed as cell growth level at 10 uM after 48 hrs by sulforhodamine B assay; type: functional
[8] = Cytotoxicity against human UACC62 cells assessed as cell growth level at 10 uM after 48 hrs by sulforhodamine B assay; type: functional, UACC-62
[9] = Cytotoxicity against human OVCAR4 cells assessed as cell growth level at 10 uM after 48 hrs by sulforhodamine B assay; type: functional, OVCAR-4
[10] = Cytotoxicity against human Hs 578T cells assessed as cell growth level at 10 uM after 48 hrs by sulforhodamine B assay; type: functional
SK-MEL-2 = test: Cytotoxicity against human SK-MEL-2 cells assessed as cell growth level at 10 uM after 48 hrs by sulforhodamine B assay; type: functional
RXF 393 = test: Cytotoxicity against human RXF393 cells assessed as cell growth level at 10 uM after 48 hrs by sulforhodamine B assay; type: functional
BT-549 = test: Cytotoxicity against human BT549 cells assessed as cell growth level at 10 uM after 48 hrs by sulforhodamine B assay; type: functional
[11] = Cytotoxicity against human NCI-ADR-RES cells assessed as cell growth level at 10 uM after 48 hrs by sulforhodamine B assay; type: functional

Compound: O=C1c2ccccc2C(=O)c2cc3oc(SCc4ccc(F)cc4)nc3cc21
- Activity (HOP-92): 74.13%
- Activity [1]: 98.94%
- Activity (SK-MEL-28): 98.54%
- Activity (MDA-MB-231): 103.32%
- Activity (A549): 83.66%
- Activity [2]: 94.89%
- Activity (NCI-H23): 90.64%
- Activity (COLO 205): 103.52%
- Activity (SF-539): 94.71%
- Activity (TK-10): 92.13%
- Activity [3]: 94.53%
- Activity (T47D): 102.69%
- Activity (SNB-75): 88.45%
- Activity (CAKI-1): 90.54%
- Activity [4]: 115.02%
- Activity (A498): 94.5%
- Activity (SK-MEL-5): 97.58%
- Activity (K562): 93.54%
- Activity (NCI-H322M): 85.42%
- Activity (DU-145): 103.51%
- Activity (MDA-MB-468): 90.68%
- Activity [5]: 86.24%
- Activity [6]: 94.94%
- Activity (SW-620): 100.32%
- Activity (786-0): 98.08%
- Activity (U-251): 96.4%
- Activity (IGROV-1): 87.04%
- Activity (SF-268): 103.49%
- Activity (HOP-62): 89.39%
- Activity (SR): 85.14%
- Activity (HCC 2998): 108.69%
- Activity [7]: 88.61%
- Activity (ACHN): 82.53%
- Activity (M14): 103.58%
- Activity (NCI-H226): 83.03%
- Activity (MDA-MB-435): 91.05%
- Activity (HL-60(TB)): 95.74%
- Activity (SF-295): 86.95%
- Activity (LOX IMVI): 94.24%
- Activity (MOLT-4): 90.09%
- Activity [8]: 89.94%
- Activity [9]: 74.06%
- Activity [10]: 95.47%
- Activity (SK-MEL-2): 86.04%
- Activity (RXF 393): 90.29%
- Activity (BT-549): 102.4%
- Activity [11]: 91.27%

Compound: CCSc1nc2cc3c(cc2o1)C(=O)c1ccccc1C3=O
- Activity (HOP-92): 72.67%
- Activity [1]: 92.45%
- Activity (SK-MEL-28): 92.36%
- Activity (MDA-MB-231): 90.66%
- Activity (A549): 96.49%
- Activity [2]: 92.46%
- Activity (NCI-H23): 90.76%
- Activity (COLO 205): 98.08%
- Activity (SF-539): 94.61%
- Activity (TK-10): 100.92%
- Activity [3]: 96.65%
- Activity (T47D): 96.02%
- Activity (SNB-75): 96.42%
- Activity (CAKI-1): 93.49%
- Activity [4]: 101%
- Activity (A498): 80.69%
- Activity (SK-MEL-5): 100.35%
- Activity (K562): 96.26%
- Activity (NCI-H322M): 77.88%
- Activity (DU-145): 107.71%
- Activity (MDA-MB-468): 88.73%
- Activity [5]: 90.67%
- Activity [6]: 104.57%
- Activity (SW-620): 91.86%
- Activity (786-0): 99.33%
- Activity (U-251): 94%
- Activity (IGROV-1): 79.05%
- Activity (SF-268): 102.22%
- Activity (HOP-62): 75.13%
- Activity (SR): 92.53%
- Activity (HCC 2998): 101.65%
- Activity [7]: 95.99%
- Activity (ACHN): 90.86%
- Activity (M14): 98.8%
- Activity (NCI-H226): 82.45%
- Activity (MDA-MB-435): 101.49%
- Activity (HL-60(TB)): 96.05%
- Activity (SF-295): 92.06%
- Activity (LOX IMVI): 91%
- Activity (MOLT-4): 101.76%
- Activity [8]: 89.01%
- Activity [9]: 94.25%
- Activity [10]: 81.15%
- Activity (SK-MEL-2): 96.71%
- Activity (RXF 393): 101%
- Activity (BT-549): 114.59%
- Activity [11]: 95.82%

Compound: CN(C)CCCSc1nc2cc3c(cc2o1)C(=O)c1ccccc1C3=O
- Activity (HOP-92): 34.36%
- Activity [1]: 99.82%
- Activity (SK-MEL-28): 108.23%
- Activity (MDA-MB-231): 71.49%
- Activity (A549): 54.13%
- Activity [2]: 72.26%
- Activity (NCI-H23): 97.69%
- Activity (COLO 205): 59.49%
- Activity (SF-539): 87.3%
- Activity (TK-10): 73.42%
- Activity [3]: 68.98%
- Activity (T47D): 82.2%
- Activity (SNB-75): 88.28%
- Activity (CAKI-1): 73.88%
- Activity [4]: 100.68%
- Activity (A498): 72.09%
- Activity (SK-MEL-5): 90.17%
- Activity (K562): 51.17%
- Activity (NCI-H322M): 85.16%
- Activity (DU-145): 53.81%
- Activity (MDA-MB-468): 88.6%
- Activity [5]: 77.71%
- Activity [6]: 86.43%
- Activity (SW-620): 69.11%
- Activity (786-0): 86.09%
- Activity (U-251): 87.74%
- Activity (IGROV-1): 71.71%
- Activity (SF-268): 102.39%
- Activity (HOP-62): 85.62%
- Activity (SR): 28.03%
- Activity (HCC 2998): 100.1%
- Activity [7]: 59.24%
- Activity (ACHN): 57.3%
- Activity (M14): 101.41%
- Activity (NCI-H226): 100.17%
- Activity (MDA-MB-435): 85.47%
- Activity (HL-60(TB)): 75.05%
- Activity (SF-295): 92.69%
- Activity (LOX IMVI): 76.64%
- Activity (MOLT-4): 13.77%
- Activity [8]: 86%
- Activity [9]: 109.08%
- Activity [10]: 91.54%
- Activity (SK-MEL-2): 92.13%
- Activity (RXF 393): 83.05%
- Activity (BT-549): 107.23%
- Activity [11]: 90.68%
